Reference: patent publication US6858627B2, “Glucocorticoid mimetics, methods of making them, pharmaceutical compositions, and uses thereof” (Boehringer Ingelheim Pharmaceuticals, Inc., priority 2002, dated 2005)

What was measured:
glucocorticoid receptor [1] = experiment: Glucocorticoid receptor cell assays, antagonist activity; format: cell-based; conditions: assay not given
Method: B. Glucocorticoid Receptor Cell Assays
Evaluation of agonist or antagonist activity of compounds binding to the glucocorticoid receptor may be determined by any of the assays.
3. Modulation of Tyrosine Aminotransferase (TAT) Induction in Rat Hepatoma Cells
Testing of compounds for agonist or antagonist activity in induction of tyrosine aminotransferase (TAT) in rat hepatoma cells.
H4-II-E-C3 cells were incubated overnight in 96 well plates (20,000 cells/100 μL/well) in MEM medium containing 10% heat inactivated FBS and 1% nonessential amino acids. On the next day, cells were stimulated with the indicated concentrations of dexamethasone or test compound (dissolved in DMSO, final DMSO concentration 0.2%) for 18 hours. Control cells were treated with 0.2% DMSO. After 18 hours, the cells were lysed in a buffer containing 0.1% Triton X-100 and the TAT activity was measured in a photometric assay using tyrosine and alpha-ketoglutarate as substrates. […]
Cells were cultured overnight in DMEM medium without phenol red, supplemented with 3% CCS (charcoal treated calf serum) and then transferred to 96 well plates (15,000 cells/100 μL/well). […] After 18 hours, the cells were lysed with cell lysis reagent (Promega, Cat. No. E1531), luciferase assay reagent (Promega, Cat. No. E1501) was added and the glow luminescence was measured using a luminometer (BMG, Offenburg). […]

glucocorticoid receptor [2] = experiment: Glucocorticoid receptor function, one or more of the above assays (binding and cell assays); format: cell-based; conditions: in one or more of the above assays; assay not given
Method: Compounds of the invention were evaluated for binding to the steroid receptor by a fluorescence polarization competitive binding assay. Detailed descriptions for preparation of recombinant glucocorticoid receptor (GR) complex used in the assay is described in U.S. Patent Application Publication No. 2003/0,017,503, filed May 20, 2002, and the corresponding U.S. provisional application No. 60/291,877, filed May 18, 2001, each of which is incorporated herein by reference in its entirety. Preparation of the tetramethyl rhodamine (TAMRA)-labeled dexamethasone probe was accomplished using a standard literature procedure (M. Pons et al., J. Steroid Biochem., 1985, 22, pp. 267-273).
This assay uses fluorescence polarization (FP) to quantitate the ability of test compounds to compete with tetramethyl rhodamine (TAMRA)-labeled dexamethasone for binding to a human glucocorticoid receptor (GR) complex prepared from an insect expression system. […]
The binding reactions were incubated for 1 hour at room temperature and then read for fluorescence polarization in the LJL Analyst set to 550 nm excitation and 580 nm emission, with the Rhodamine 561 dichroic mirror installed. IC50 values were determined by iterative non-linear curve fitting of the FP signal data to a 4-parameter logistic equation. […]

SMILES	activity as antagonists in cellular assays (glucocorticoid receptor [1])	activity as an agonist of the glucocorticoid receptor function (glucocorticoid receptor [2])
C=CCOC(C)C1=CC(C)(C)Nc2ccc(-c3ccccc3OC)cc21 (stereo not drawn) [4-(1-Allyloxyethyl)-6-(2-methoxyphenyl)-2,2-dimethyl-1,2-dihydroquinoline]	potent activity as antagonists	
C=CCOC(C)C1=CC(C)(C)Nc2ccc(-c3cc(F)ccc3OC)cc21 (stereo not drawn) [4-(1-Allyloxyethyl)-6-(5-fluoro-2-methoxyphenyl)-2,2-dimethyl-1,2-dihydroquinoline]		activity as an agonist
C=CCSCC1=CC(C)(C)Nc2ccc(-c3ccccc3OC)cc21 [4-Allylsulfanylmethyl-6-(2-methoxyphenyl)-2,2-dimethyl-1,2-dihydroquinoline]	potent activity as antagonists	
